Data published in the supplement of paper PMC10307832.

Key:
Test in all cases: relative viability (nuclei count vs DMSO), 5 days (fraction); higher = more cells survive
[1] = compound: COc1cc2c(Oc3ccc4[nH]c(C)cc4c3F)ncnc2cc1OCCCN1CCCC1 [Cediranib] + COc1cc2c(Oc3ccc(NC(=O)C4(C(=O)Nc5ccc(F)cc5)CC4)cc3F)ccnc2cc1OCCCN1CCOCC1 [Foretinib] (partner 0.25 µM)
How it was run: (§1)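 Relative viability divides the nuclei count in treated wells by that in vehicle wells. Lung cancer cell lines were seeded in 1536-well plates, dosed by pin tool the next day, and fixed and stained after 5 days in one step with final 0.05% Triton X-100, 1% formaldehyde and 1 ug/ml Hoechst. Dosing was a single drug or a fixed anchor-drug dose plus five library-drug doses (not always all listed) in √10 steps, and values are medians of duplicate plates imaged at 4×.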

[2] = compound: COc1cc2c(Oc3ccc4[nH]c(C)cc4c3F)ncnc2cc1OCCCN1CCCC1 [Cediranib] + Nc1ncn([C@H]2C[C@H](O)[C@@H](CO)O2)c(=O)n1 [Decitabine] (partner 2 µM)
How it was run: as §1

[3] = compound: Nc1ncn([C@H]2C[C@H](O)[C@@H](CO)O2)c(=O)n1 [Decitabine] + COc1cccc2cc(-c3nc([C@H]4CC[C@H](C(=O)O)CC4)n4ncnc(N)c34)[nH]c12 [OSI-027] (partner 0.5 µM)
How it was run: as §1

[4] = compound: O=C(C[C@H]1NCCC[C@@H]1O)Cn1cnc2cc(Br)c(Cl)cc2c1=O (racemic) [Halofuginone] + CS(=O)(=O)N1CCN(Cc2cc3nc(-c4cccc5[nH]ncc45)nc(N4CCOCC4)c3s2)CC1 [Pictilisib] (partner 1 µM)
How it was run: as §1

Row | Cell Line | relative viability ([1]; first compound 0.04 µM) | relative viability ([1]; first compound 0.1265 µM) | relative viability ([1]; first compound 0.4 µM) | relative viability ([1]; first compound 1.265 µM) | relative viability ([1]; first compound 4 µM) | relative viability ([2]; first compound 0.04 µM) | relative viability ([2]; first compound 0.4 µM) | relative viability ([2]; first compound 1.265 µM) | relative viability ([2]; first compound 4 µM) | relative viability ([3]; first compound 0.04 µM) | relative viability ([3]; first compound 0.1265 µM) | relative viability ([3]; first compound 0.4 µM) | relative viability ([3]; first compound 1.265 µM) | relative viability ([3]; first compound 4 µM) | relative viability ([4]; first compound 0.001 µM) | relative viability ([4]; first compound 0.003162 µM) | relative viability ([4]; first compound 0.01 µM) | relative viability ([4]; first compound 0.03162 µM) | relative viability ([4]; first compound 0.1 µM) | relative viability ([2]; first compound 0.1265 µM)
1 | NCI-H2170 | 1.02 | 0.987 | 0.931 | 1.01 | 1.12 | 0.522 | 0.473 | 0.481 | 0.515 | 0.626 | 0.55 | 0.454 | 0.44 | 0.385 | 0.311 | 0.313 | 0.313 | 0.32 | 0.26 | –
2 | NCI-H727 | – | 1.05 | 0.868 | 0.84 | 0.93 | 0.818 | 0.793 | 0.894 | 0.909 | 0.485 | 0.65 | 0.477 | 0.57 | 0.426 | 0.428 | 0.444 | 0.359 | 0.421 | 0.194 | 0.692
3 | NCI-H838 | 1.02 | 1.02 | 0.994 | 1.01 | 1.05 | 0.497 | 0.432 | 0.383 | 0.506 | 0.359 | 0.324 | 0.279 | 0.273 | 0.29 | 0.478 | 0.481 | 0.42 | 0.37 | 0.134 | 0.376
4 | H3255 | 0.788 | – | 0.821 | 0.732 | 0.932 | 0.534 | 0.601 | – | 0.487 | – | 0.478 | 0.435 | 0.5 | 0.535 | 0.472 | 0.482 | 0.437 | 0.394 | 0.447 | –
5 | EPLC-272H | 0.634 | – | 0.634 | – | 0.693 | 0.352 | 0.338 | 0.406 | 0.354 | – | 0.288 | 0.11 | 0.248 | 0.186 | 0.324 | 0.306 | 0.338 | 0.352 | 0.325 | –
6 | NCI-H647 | 1.14 | 1.25 | 1.03 | 1.27 | 1.3 | 0.415 | 0.448 | 0.349 | 0.405 | 0.648 | 0.549 | 0.403 | 0.152 | 0.201 | 0.543 | 0.425 | 0.459 | 0.418 | 0.33 | 0.414
7 | LXF-289 | 1.02 | 0.822 | 0.912 | 0.982 | 0.936 | 0.397 | 0.371 | 0.385 | 0.411 | 0.646 | 0.617 | 0.361 | 0.31 | 0.23 | 0.748 | 0.859 | 0.795 | 0.813 | 0.495 | –
8 | NCI-H1650 | 1.07 | 1.36 | 1.14 | 1.08 | 0.873 | 0.408 | 0.354 | 0.496 | 0.385 | 0.422 | 0.495 | 0.321 | 0.285 | 0.341 | 0.28 | 0.658 | 0.469 | 0.495 | 0.136 | 0.482
9 | NCI-H1755 | 0.97 | 0.941 | 0.903 | 0.944 | 0.908 | 0.71 | 0.753 | 0.707 | 0.724 | 0.642 | 0.669 | 0.534 | 0.571 | 0.52 | 0.478 | 0.468 | 0.445 | 0.493 | 0.287 | 0.66
10 | HCC-15 | 1.01 | – | 0.946 | 1.07 | 1.09 | 0.645 | 0.575 | 0.688 | 0.644 | 0.688 | 0.722 | 0.328 | 0.445 | 0.327 | 0.721 | 0.852 | 0.7 | 0.857 | 0.673 | 0.433
11 | EMC-BAC-2 | 1.04 | 1.11 | 0.984 | 0.991 | 1.03 | 0.953 | 0.989 | 0.918 | 1.04 | 0.39 | 0.4 | 0.286 | 0.344 | 0.363 | 0.491 | 0.55 | 0.489 | 0.54 | 0.46 | –
12 | NCI-H1734 | 0.813 | 0.911 | 0.822 | 0.853 | 0.979 | 0.531 | 0.551 | 0.497 | 0.536 | 0.506 | 0.554 | 0.578 | 0.368 | 0.266 | 0.46 | 0.492 | 0.403 | 0.449 | 0.327 | 0.512
13 | NCI-H1395 | 1.1 | 1.01 | 0.911 | 0.976 | 1.13 | 0.717 | 0.675 | 0.712 | 0.77 | 0.483 | 0.529 | 0.516 | 0.455 | 0.492 | 0.625 | 0.674 | 0.86 | 0.578 | 0.54 | 0.769
14 | HOP-62 | 1.3 | 1.15 | 1.1 | 1.15 | 1.22 | 0.255 | 0.215 | 0.207 | 0.203 | 0.613 | 0.601 | 0.272 | 0.23 | 0.167 | 0.661 | 0.781 | 0.766 | 0.53 | 0.239 | 0.246
15 | LK-2 | 1.43 | 0.875 | 1.23 | 1.19 | 1.01 | 0.287 | 0.396 | 0.269 | 0.273 | 0.188 | 0.2 | 0.191 | 0.252 | 0.212 | 0.577 | 0.792 | 0.531 | 0.664 | 0.532 | 0.231
16 | SW 1573 | 0.937 | 1.01 | 0.912 | 0.996 | 1.09 | 0.606 | 0.542 | 0.408 | 0.553 | 0.469 | 0.558 | 0.572 | 0.273 | 0.21 | 0.451 | 0.532 | 0.435 | 0.34 | 0.18 | 0.685
17 | SK-LU-1 | 0.945 | 0.825 | 0.725 | 0.876 | 0.972 | 0.657 | 0.636 | 0.613 | 0.73 | 0.296 | 0.29 | 0.216 | 0.253 | 0.227 | 0.766 | 0.633 | 0.557 | 0.493 | 0.415 | 0.638
